Values of other authors, collected in patent US4771122A, “Novel cyclosporins” (Sandoz Ltd., priority 1985, dated 1988).

Conditions: reported in literature

[(D)Pro]^3 -Cyclosporine
immunosuppressive activity: substantially lacking in immunosuppressive activity
